Results from patent US20230272029A1, “CO-AGONISTS AT GLP-1 AND GIP RECEPTORS SUITABLE FOR ORAL DELIVERY” (Novo Nordisk A/S, priority 2020, published 2023).
Marks after values point to notes of the source that are not given here. Starred links: 1 amine or outer side, 2 acyl side, 3 side chain; linkers in the order of their positions; H or OH if unused. Non-standard residues stand in square brackets, D forms with d. Residues, ends and D or L forms follow the SMILES beside them. Groups on a side chain read outwards from the residue. *: point of attachment. C18 diacid = O=C(O)CCCCCCCCCCCCCCCCC(=O)*; γGlu = O=C(O)[C@H](CCC(=O)[*:2])N[*:1]; εLys = N[C@@H](CCCCN[*:1])C(=O)[*:2]; AEEA = NCCOCCOCC(=O)O; Aib = CC(C)(N)C(=O)O

Assay: Pharmacokinetic study in dogs after oral dosing of tablets with SNAC
Format: in vivo, Beagle dogs
Method: The purpose of this example is to determine the half-life and plasma exposure in vivo of the compounds of the present invention after p.o. administration to beagle dogs, i.e. the terminal half-life and concentration of test substance that reaches circulation with time. This is done in a pharmacokinetic (PK) study, where these parameters of the compound in question are determined. By terminal half-life is generally meant the period of time it takes to halve a certain plasma concentration, measured after the initial distribution phase.
The amount of SNAC in the tablet composition was 100-300 mg, the amount of magnesium stearate in the tablet composition was 7.7 mg, and the target amount of each test substance in the tablet composition was 3-4 mg.
Male beagle dogs, 1-7 years of age and weighing 9-17 kg during the study period, were included in the study. The dogs were dosed in a fasting state. The dogs were group housed in pens (12 hours light: 12 hours dark), and fed individually and restrictedly once daily with Royal Canin Medium Adult dog food (Royal Canin Products, China Branch, or Brogaarden A/S, Denmark). The dogs were used for repeated PK studies with a suitable wash-out period between successive dosing. An appropriate acclimatization period was given prior to initiation of the first PK study. All handling, dosing, and blood sampling of the animals were performed by trained and skilled staff. Before the studies, the dogs were fasted overnight and from 0 to 4 hours after dosing. The dogs were restricted to water 1 hour before dosing until 4 hours after dosing, but otherwise had ad libitum access to water during the whole period.
The compositions were administered by a single oral dosing to the dogs in groups of 6-8 dogs. […] The mouth was then closed, and 10 mL of tap water was given by syringe or gavage to facilitate swallowing of the tablet.
For each blood sample time point, approximately 0.8 mL of whole blood was collected in a 1.5 mL EDTA-coated tube, which was gently turned to mix the sample with EDTA. Blood samples were collected in EDTA buffer (8 mM) and then centrifuged at 4° C. and 2000g for 10 minutes. Plasma was pipetted into Micronic tubes on dry ice, and kept at −20° C. or lower until analysis. Blood samples were taken as appropriate, for example from a venflon in the cephalic vein in the front leg for the first 2 hours and then with syringe from the jugular vein for the rest of the time points. The first few drops were allowed to drain from the venflon to avoid heparin saline from the venflon in the sample.
All blood samples were collected into test tubes containing EDTA for stabilisation and kept on ice until centrifugation. Plasma was separated from whole blood by centrifugation and the plasma was stored at −20° C. or lower until analysis.
The plasma was analysed for test substance using LC-MS (Liquid Chromatography-Mass Spectrometry) as known to the person skilled in the art. […] RP-HPLC separation was achieved using a linear gradient of 1:1 acetonitrile/methanol in 1% aqueous formic acid using either: a Phenomenex Onyx Monolithic C18 column (50×2.0 mm) and a flow rate of 0.8 mL/min at 30° C.; or an Agilent Poroshell 120 SB-C18 column (50×2.1 mm, 2.7 μm) at a flow rate of 0.4 mL/min at 60° C. The mass spectrometer was operated in either positive ionization SIM mode or positive ionization PRM mode.
For each individual animal, a plasma concentration-time profile was analysed by a non-compartmental model in Pharsight Phoenix WinNonLin ver. 6.4 software or other relevant software for PK analysis, and the resulting terminal half-life (t1/2), maximum plasma concentration per dose (Cmax/D), time for maximum plasma concentration (tmax), and area under the curve to infinity per dose (AUC/D) were determined. Summary statistics of pharmacokinetic results were presented as median (for tmax), harmonic mean ([…]), or arithmetic mean (Cmax, AUC).

SMILES | Cmax/Dose (dog, in vivo, po) | AUC/Dose (dog, in vivo, po) [kg·h/L] | Cmax/Dose (oral tablet, 300 mg SNAC, 3 mg test substance, Beagle dogs, arithmetic mean)
CC[C@H](C)[C@H](NC(=O)[C@H](Cc1ccccc1)NC(=O)[C@H](CCC(=O)O)NC(=O)[C@H](CCCNC(=N)N)NC(=O)[C@H](C)NC(=O)[C@H](C)NC(=O)[C@H](CCC(N)=O)NC(=O)[C@H](CCCCNC(=O)COCCOCCNC(=O)COCCOCCNC(=O)CC[C@H](NC(=O)CCCCCCCCCCCCCCCCC(=O)O)C(=O)O)NC(=O)[C@H](CCC(=O)O)NC(=O)[C@H](CC(C)C)NC(=O)[C@H](CC(C)C)NC(=O)[C@@H](NC(=O)[C@H](CO)NC(=O)[C@H](Cc1ccc(O)cc1)NC(=O)[C@H](CC(=O)O)NC(=O)[C@H](CO)NC(=O)[C@@H](NC(=O)[C@H](Cc1ccccc1)NC(=O)[C@@H](NC(=O)CNC(=O)[C@H](CCC(=O)O)NC(=O)C(C)(C)NC(=O)[C@@H](N)Cc1ccc(O)cc1)[C@@H](C)O)[C@@H](C)O)[C@@H](C)CC)C(=O)N[C@@H](CCC(=O)O)C(=O)N[C@@H](Cc1c[nH]c2ccccc12)C(=O)N[C@@H](CC(C)C)C(=O)N[C@@H](CC(C)C)C(=O)N[C@@H](C)C(=O)NCC(=O)NCC(=O)N1CCC[C@H]1C(=O)N[C@@H](CO)C(=O)N[C@@H](CO)C(=O)NCC(=O)N[C@@H](C)C(=O)N1CCC[C@H]1C(=O)N1CCC[C@H]1C(=O)N1CCC[C@H]1C(=O)N[C@@H](CO)C(=O)O [Compound No. 32] (H-Y[Aib]EGTFTSDYSILLEK([AEEA-AEEA-γGlu-C18 diacid])QAAREFIEWLLAGGPSSGAPPPS-OH) | 0.45* kg/L |  | 
CC[C@H](C)[C@H](NC(=O)[C@H](Cc1ccccc1)NC(=O)[C@H](CCC(=O)O)NC(=O)[C@H](CCC(N)=O)NC(=O)[C@H](C)NC(=O)[C@H](C)NC(=O)[C@H](CCC(N)=O)NC(=O)[C@H](CCCCNC(=O)[C@@H](N)CCCCNC(=O)[C@@H](N)CCCCNC(=O)CC[C@H](NC(=O)CCCCCCCCCCCCCCCCC(=O)O)C(=O)O)NC(=O)[C@H](CCC(=O)O)NC(=O)[C@H](CC(C)C)NC(=O)[C@H](CC(C)C)NC(=O)[C@@H](NC(=O)[C@H](CO)NC(=O)[C@H](Cc1ccc(O)cc1)NC(=O)[C@H](CC(=O)O)NC(=O)[C@H](CO)NC(=O)[C@@H](NC(=O)[C@H](Cc1ccccc1)NC(=O)[C@@H](NC(=O)CNC(=O)[C@H](CCC(=O)O)NC(=O)C(C)(C)NC(=O)[C@@H](N)Cc1ccc(O)cc1)[C@@H](C)O)[C@@H](C)O)[C@@H](C)CC)C(=O)N[C@@H](CC(N)=O)C(=O)N[C@@H](Cc1c[nH]c2ccccc12)C(=O)N[C@@H](CC(C)C)C(=O)N[C@@H](CC(C)C)C(=O)N[C@@H](C)C(=O)NCC(=O)NCC(=O)N1CCC[C@H]1C(=O)N[C@@H](CO)C(=O)N[C@@H](CO)C(=O)NCC(=O)N[C@@H](C)C(=O)N1CCC[C@H]1C(=O)N1CCC[C@H]1C(=O)N1CCC[C@H]1C(=O)N[C@@H](CO)C(=O)O [Compound No. 24] (H-Y[Aib]EGTFTSDYSILLEK([εLys-εLys-γGlu-C18 diacid])QAAQEFINWLLAGGPSSGAPPPS-OH) | 0.29 kg/L |  | 
CC[C@H](C)[C@H](NC(=O)[C@H](Cc1ccccc1)NC(=O)[C@H](CCC(=O)O)NC(=O)[C@H](CCCNC(=N)N)NC(=O)[C@H](C)NC(=O)[C@H](C)NC(=O)[C@H](CCC(N)=O)NC(=O)[C@H](CCCCNC(=O)[C@@H](N)CCCCNC(=O)[C@@H](N)CCCCNC(=O)CC[C@H](NC(=O)CCCCCCCCCCCCCCCCC(=O)O)C(=O)O)NC(=O)[C@H](CCC(=O)O)NC(=O)[C@H](CC(C)C)NC(=O)[C@H](Cc1ccc(O)cc1)NC(=O)[C@@H](NC(=O)[C@H](CO)NC(=O)[C@H](Cc1ccc(O)cc1)NC(=O)[C@H](CC(=O)O)NC(=O)[C@H](CO)NC(=O)[C@@H](NC(=O)[C@H](Cc1ccccc1)NC(=O)[C@@H](NC(=O)CNC(=O)[C@H](CCC(=O)O)NC(=O)C(C)(C)NC(=O)[C@@H](N)Cc1ccc(O)cc1)[C@@H](C)O)[C@@H](C)O)[C@@H](C)CC)C(=O)N[C@@H](CCC(=O)O)C(=O)N[C@@H](Cc1c[nH]c2ccccc12)C(=O)N[C@@H](CC(C)C)C(=O)N[C@@H](CC(C)C)C(=O)N[C@@H](C)C(=O)NCC(=O)NCC(=O)N1CCC[C@H]1C(=O)N[C@@H](CO)C(=O)N[C@@H](CO)C(=O)NCC(=O)N[C@@H](C)C(=O)N1CCC[C@H]1C(=O)N1CCC[C@H]1C(=O)N1CCC[C@H]1C(=O)N[C@@H](CO)C(=O)O [Compound No. 9] (H-Y[Aib]EGTFTSDYSIYLEK([εLys-εLys-γGlu-C18 diacid])QAAREFIEWLLAGGPSSGAPPPS-OH) | 0.24 kg/L |  | 
CC[C@H](C)[C@H](NC(=O)[C@H](Cc1ccccc1)NC(=O)[C@H](CCC(=O)O)NC(=O)[C@H](CCCNC(=N)N)NC(=O)[C@H](C)NC(=O)[C@H](C)NC(=O)[C@H](CCC(N)=O)NC(=O)[C@H](CCCCNC(=O)[C@@H](N)CCCCNC(=O)[C@@H](N)CCCCNC(=O)CC[C@H](NC(=O)CCCCCCCCCCCCCCCCC(=O)O)C(=O)O)NC(=O)[C@H](CCC(=O)O)NC(=O)[C@H](CC(C)C)NC(=O)[C@H](Cc1ccc(O)cc1)NC(=O)[C@@H](NC(=O)[C@H](CO)NC(=O)[C@H](Cc1ccc(O)cc1)NC(=O)[C@H](CC(=O)O)NC(=O)[C@H](CO)NC(=O)[C@@H](NC(=O)[C@H](Cc1ccccc1)NC(=O)[C@@H](NC(=O)CNC(=O)[C@H](CCC(=O)O)NC(=O)C(C)(C)NC(=O)[C@@H](N)Cc1ccc(O)cc1)[C@@H](C)O)[C@@H](C)O)[C@@H](C)CC)C(=O)N[C@@H](CC(N)=O)C(=O)N[C@@H](Cc1c[nH]c2ccccc12)C(=O)N[C@@H](CC(C)C)C(=O)N[C@@H](CC(C)C)C(=O)N[C@@H](C)C(=O)NCC(=O)NCC(=O)N1CCC[C@H]1C(=O)N[C@@H](CO)C(=O)N[C@@H](CO)C(=O)NCC(=O)N[C@@H](C)C(=O)N1CCC[C@H]1C(=O)N1CCC[C@H]1C(=O)N1CCC[C@H]1C(=O)N[C@@H](CO)C(=O)O [Compound No. 11] (H-Y[Aib]EGTFTSDYSIYLEK([εLys-εLys-γGlu-C18 diacid])QAAREFINWLLAGGPSSGAPPPS-OH) | 0.19 kg/L | 7.1 | 
CC[C@H](C)[C@H](NC(=O)[C@H](Cc1ccccc1)NC(=O)[C@H](CCC(=O)O)NC(=O)[C@H](CCCNC(=N)N)NC(=O)[C@H](C)NC(=O)[C@H](C)NC(=O)[C@H](CCC(N)=O)NC(=O)[C@H](CCCCNC(=O)[C@@H](N)CCCCNC(=O)[C@@H](N)CCCCNC(=O)CC[C@H](NC(=O)CCCCCCCCCCCCCCCCC(=O)O)C(=O)O)NC(=O)[C@H](CCC(=O)O)NC(=O)[C@H](CC(C)C)NC(=O)[C@H](CC(C)C)NC(=O)[C@@H](NC(=O)[C@H](CO)NC(=O)[C@H](Cc1ccc(O)cc1)NC(=O)[C@H](CC(=O)O)NC(=O)[C@H](CO)NC(=O)[C@@H](NC(=O)[C@H](Cc1ccccc1)NC(=O)[C@@H](NC(=O)CNC(=O)[C@H](CCC(=O)O)NC(=O)C(C)(C)NC(=O)[C@@H](N)Cc1ccc(O)cc1)[C@@H](C)O)[C@@H](C)O)[C@@H](C)CC)C(=O)N[C@@H](CCC(=O)O)C(=O)N[C@@H](Cc1c[nH]c2ccccc12)C(=O)N[C@@H](CC(C)C)C(=O)N[C@@H](CC(C)C)C(=O)N[C@@H](CCCNC(=N)N)C(=O)NCC(=O)NCC(=O)N1CCC[C@H]1C(=O)N[C@@H](CCC(=O)O)C(=O)N[C@@H](CO)C(=O)NCC(=O)N[C@@H](C)C(=O)N1CCC[C@H]1C(=O)N1CCC[C@H]1C(=O)N1CCC[C@H]1C(=O)N[C@@H](CO)C(=O)O [Compound No. 28] (H-Y[Aib]EGTFTSDYSILLEK([εLys-εLys-γGlu-C18 diacid])QAAREFIEWLLRGGPESGAPPPS-OH) |  |  | 0.36** kg/L
